Values of other authors in patent publication US20120309722A1, “THERAPEUTIC REGIMENS FOR THE TREATMENT OF IMMUNOINFLAMMATORY DISORDERS” (priority 2007, published 2012).

Key:
[1] = BNF guidelines; for Equivalent Dose to Prednisolone: Equal to 1 mg prednisolone: dose equivalent to 1 mg prednisolone; for Equivalent Dose to Prednisolone: Equal to 5 mg prednisolone: dose equivalent to 5 mg prednisolone
[2] = nasal administration; BNF 37 March 1999

Compound	Equivalent Dose to Prednisolone: Equal to 1 mg prednisolone [1]	Equivalent Dose to Prednisolone: Equal to 5 mg prednisolone [1]	broadly similar dose from clinical dosing equivalence [2]
CC(=O)OCC(=O)[C@@]1(O)CC[C@H]2[C@@H]3CCC4=CC(=O)CC[C@]4(C)[C@H]3C(=O)C[C@@]21C [cortisone acetate]	5 mg	25 mg	–
CC(=O)OCC(=O)[C@@]12N=C(C)O[C@@H]1C[C@H]1[C@@H]3CCC4=CC(=O)C=C[C@]4(C)[C@H]3[C@@H](O)C[C@@]12C [deflazacort]	1.2 mg	6 mg	–
C[C@]12CCC(=O)C=C1CC[C@@H]1[C@@H]2[C@@H](O)C[C@@]2(C)[C@H]1CC[C@]2(O)C(=O)CO [hydrocortisone]	4 mg	20 mg	–
C[C@]12C=CC(=O)C=C1CC[C@H]1[C@@H]3C[C@@H](O)[C@](O)(C(=O)CO)[C@@]3(C)C[C@H](O)[C@@]12F [triamcinolone]	0.8 mg	4 mg	110 µg
methyl prednisone	0.8 mg	4 mg	–
